Test results taken from publication PMC10146281, “Pharmacokinetic and Pharmacodynamic Characteristics of Pelubiprofen Tromethamine vs. Pelubiprofen in Healthy Subjects” (Pharmaceutics, 2023).

Columns and labels:
[1] = Study II (DW1809-103): pharmacokinetic analysis of plasma pelubiprofen (LC-MS/MS) after single oral dose
Protocol: (§1) In this study, the two independent clinical trials (Study I and II) were conducted using an identical randomized, open-label, oral, single-dose, fasted, two-sequence, four-period, crossover design. Due to the known pharmacokinetic characteristics of pelubiprofen with its large intra-subject variability, the replicated design was chosen to calculate the true intra-coefficient of variation in both studies. Study I tested 25 mg of pelubiprofen tromethamine (36.73 mg of pelubiprofen tromethamine salt; 25 mg of pelubiprofen, Daewon Pharmaceutical Co., Ltd., Seoul, Republic of Korea) against 30 mg of pelubiprofen (30.0 mg of pelubiprofen, Daewon Pharmaceutical Co., Ltd., Seoul, Republic of Korea) as the reference. Study II tested 30 mg of pelubiprofen tromethamine (44.07 mg of pelubiprofen tromethamine salt; 30 mg of pelubiprofen, Daewon Pharmaceutical Co., Ltd., Seoul, Republic of Korea) against 30 mg of pelubiprofen (30.0 mg of pelubiprofen, Daewon Pharmaceutical Co., Ltd., Seoul, Republic of Korea) as the reference. The target number of subjects in both Study I and II was set to N = 36 (N = 18 for each sequence group) (Figure 1, Table 1).
(§2) The subject screening in both Study I and Study II was performed in the four weeks ([…]) prior to the first administration (Day 1). […] In addition, the screened subjects fasted for at least 10 h, excluding drinking water, from approximately 10 p.m. until administration of the investigational drug. The randomization in both Study I and II led the subjects to receive oral administration of a single test or reference tablet with approximately 150 mL of water at each time point from approximately 8 a.m. at approximately 2 min intervals according to their numbers. The subjects in both Study I and II were prohibited from drinking water for an hour before and after the administration, except during drug administration. The post-administration blood sampling and tests were performed as scheduled. All subjects were provided with identical meals approximately 4 h after blood sampling. The subjects in both Study I and II received the blood sampling and tests for the pharmacokinetic (PK) evaluation approximately 8 h after administration. Then, they were discharged following the completion of the first period of the study.
(§3) To analyze the PK characteristics in both Study I and II, approximately 5 mL of blood was sampled before administration (0 h) and at the following time points after administration; 0.083 h (5 min), 0.167 h (10 min), 0.33 h (20 min), and 0.5, 0.75, 1, 1.5, 2, 2.5, 3, 3.5, 4, 6, and 8 h. Therefore, for each subject, the blood sampling was performed 15 times in each period, resulting in a total of 60 times. All four periods proceeded on the same schedule as the first period in both Study I and II. The wash-out period between each consecutive period was set to a minimum of four days. The subjects in both Study I and II, after completing all four periods, chose a day from Day 5 to Day 7 of the final administration in the four period for visiting the center to undergo post study visit.
(§4) The validation of the quantitative analysis of plasma pelubiprofen in this study was performed in accordance with the following guidelines: the Validation Protocol for Pelubiprofen Quantification, the domestic Standard Operating Procedure (SOP) for Bioanalyses, the Guideline of Bioanalytical Method Validation (MFDS, December 2013), and Bioanalytical Method Validation Guidance for Industry (USA FDA, 2018). The plasma pelubiprofen was pretreated using protein precipitation in a dark room at room temperature (15–25 °C) and under shielded light for the subsequent liquid chromatograph tandem mass spectrometry (LC-MS/MS) analysis. The tested items in the validation included the intra-batch and inter-batch accuracy, precision, selectivity, linearity, and stability.

[2] = Study I (DW1809-102): pharmacokinetic analysis of plasma pelubiprofen (LC-MS/MS) after single oral dose; conditions: for Tmax: N = 35, median (minimum–maximum)
Protocol: as §1, §2, §3, §4

[3] = Study I safety and tolerability evaluation (adverse events); assay type: in vivo, human; conditions: for adverse events: Study I, 36 subjects evaluated, all mild
Protocol: In both Study I and II, the safety evaluation was performed on subjects administered with the investigational drug at least once. Any clinically significant findings in the interview, physical examination, vital signs, 12-lead electrocardiogram (ECG), the clinical laboratory test, etc., during the study period were collected as adverse events, which were subsequently evaluated for the incidence of serious adverse events, severity, causal relationship, etc. All relevant data were collected through monitoring by the investigator and voluntary reporting by the subjects. To collect additional data, interview and physical examination were performed where necessary. The investigator carried out the follow-up monitoring of the subjects with adverse events until the symptoms subsided and abnormal test values returned to a healthy baseline or until a satisfactory explanation for the observed change could be provided.

[4] = Study II, 30 mg pelubiprofen tromethamine vs. 30 mg pelubiprofen
[5] = Study II, healthy subjects, single oral 30 mg pelubiprofen tromethamine, fasted, N = 33, mean ± SD
[6] = Study I, healthy subjects, single oral 25 mg pelubiprofen tromethamine, fasted, N = 35, mean ± SD

Structure (SMILES): CC(C(=O)O)c1ccc(/C=C2\CCCCC2=O)cc1 (stereo not drawn) [Pelubiprofen Tromethamine, pelubiprofen tromethamine]
- increase of AUC0-t compared to the reference [1, 4]: 24%
- increase of Cmax compared to the reference [1, 4]: 29%
- AUC0-inf [1, 5]: 447.75 ± 123.40 ng·h/mL
- AUC0-t [1, 5]: 446.44 ± 123.33 ng·h/mL
- CL/F [1, 5]: 72.08 ± 19.97 L/h
- Cmax [1, 5]: 770.01 ± 347.86 ng/mL
- Vd/F [1, 5]: 94.56 ± 52.40 L
- t1/2 [1, 5]: 57 ± 33.6 min
- Tmax ([1]; Study II, healthy subjects, single oral 30 mg pelubiprofen tromethamine, fasted, N = 33, median (minimum–maximum)): 0.33 (0.17–2.50) h
- time after oral administration at which plasma concentration of pelubiprofen returned to baseline ([2]; Study I, 25 mg pelubiprofen tromethamine dose group): approximately 4 h
- bioequivalence evaluation of Cmax and AUC0-t vs. 30 mg pelubiprofen ([2]; Study I, 25 mg pelubiprofen tromethamine, criteria 90% CI log 0.70–log 1.43 (Cmax), log 0.8–log 1.25 (AUC0-t)): satisfied the bioequivalence study criteria
- AUC0-inf [2, 6]: 372.12 ± 92.16 ng·h/mL
- AUC0-t [2, 6]: 370.76 ± 91.86 ng·h/mL
- CL/F [2, 6]: 71.78 ± 19.79 L/h
- Cmax [2, 6]: 645.80 ± 237.73 ng/mL
- Vd/F [2, 6]: 87.43 ± 40.63 L
- t1/2 [2, 6]: 52.2 ± 23.4 min
- Tmax ([2]; Study I, healthy subjects, single oral 25 mg pelubiprofen tromethamine, fasted): 0.33 (0.17–1.50) h
- Tmax ([2]; Study I, healthy subjects, single oral 25 mg pelubiprofen tromethamine, fasted, listed as pelubiprofen tromethamine): approximately 0.33 h
- tolerability and safety ([3]; 25 mg pelubiprofen tromethamine compared to 30 mg pelubiprofen, healthy subjects, single oral dose): outstanding tolerability and safety
- adverse events ([3]; treatment of the test (25 mg pelubiprofen tromethamine)): one case of adverse events

Structure (SMILES): CC(C(=O)O)c1ccc(/C=C2\CCCCC2=O)cc1 (stereo not drawn) [Pelubiprofen, 2-[4-(oxocyclohexylidenemethyl)-phenyl] propionic acid]
- CL/F ([1]; Study II, healthy subjects, single oral 30 mg pelubiprofen (reference), fasted, N = 33, mean ± SD): 90.55 ± 32.04 L/h
- highest within-subject variability for Cmax ([1]; Study II, reference 30 mg pelubiprofen, fasting, four-period repeated crossover): approximately 58%
- AUC0-inf ([1]; human, plasma, po, 30 mg): 366 ± 108 ng·h/mL
- AUC0-t ([1]; human, plasma, po, 30 mg): 365 ± 108 ng·h/mL
- Cmax ([1]; human, plasma, po, 30 mg): 619 ± 336 ng/mL
- Tmax ([1]; human, plasma, po, 30 mg): 30 min
- Vd/F ([1]; human, plasma, po, 30 mg): 119 ± 94.1 L
- half-life ([1]; human, plasma, po, 30 mg): 55.8 ± 41.4 min
- CL/F ([2]; Study I, healthy subjects, single oral 30 mg pelubiprofen (reference), fasted, N = 35, mean ± SD): 92.12 ± 28.68 L/h
- Tmax ([2]; Study I, healthy subjects, single oral 30 mg pelubiprofen (reference), fasted): 0.33 (0.17–3.50) h
- highest within-subject variability for Cmax ([2]; Study I, reference 30 mg pelubiprofen, four-period repeated crossover): approximately 58%
- AUC0-inf ([2]; human, plasma, po, 30 mg): 355 ± 103 ng·h/mL
- AUC0-t ([2]; human, plasma, po, 30 mg): 352 ± 103 ng·h/mL
- Cmax ([2]; human, plasma, po, 30 mg): 619 ± 368 ng/mL
- Vd/F ([2]; human, plasma, po, 30 mg): 125 ± 58.8 L
- half-life ([2]; human, plasma, po, 30 mg): 59.4 ± 32.4 min
- Tmax ([2]; human, plasma, po, 30 mg, Tmax, Study I, healthy subjects, single oral 30 mg pelubiprofen (reference), fasted): ~19.8 min
- adverse events ([3]; treatment of reference (30 mg pelubiprofen)): three cases of adverse events
